Values joined by “and” are separate entries in the source; they are usually repeats but may differ in a detail not shown here. Equal values may be shown once. Inconclusive results and toxic doses are left out.
Tested on: P388 leukemia ip, CD2F1 mice, survival T/C
Assay: NCI In Vivo Anticancer Drug Screen. Data for tumor model P388 Leukemia (intraperitoneal) in CD2F1 (CDF1) mice
Settings: endpoint: median survival time, higher = longer survival
Method in brief: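 Mice carrying the transplanted tumor received test compound or vehicle. Survival was recorded in each group, and the value is the treated-group measurement divided by that of the vehicle-treated control group.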

[1] = dose: 50.0 mg/kg/injection, schedule: Q01DX009 (ip), vehicle: saline
[2] = dose: 100.0 mg/kg/injection, schedule: Q01DX009 (ip), vehicle: saline
[3] = dose: 200.0 mg/kg/injection, schedule: Q01DX009 (ip), vehicle: saline
[4] = dose: 50.0 mg/kg/injection, schedule: Q01DX005 (ip), vehicle: saline with Tween-80
[5] = dose: 100.0 mg/kg/injection, schedule: Q01DX005 (ip), vehicle: saline with Tween-80
[6] = dose: 200.0 mg/kg/injection, schedule: Q01DX005 (ip), vehicle: saline with Tween-80
[7] = dose: 60.0 mg/kg/injection, schedule: Q01DX005 (ip), vehicle: Klucel (hydroxypropylcellulose) (HPC)
[8] = dose: 120.0 mg/kg/injection, schedule: Q01DX005 (ip), vehicle: Klucel (hydroxypropylcellulose) (HPC)
[9] = dose: 240.0 mg/kg/injection, schedule: Q01DX005 (ip), vehicle: Klucel (hydroxypropylcellulose) (HPC)
[10] = dose: 100.0 mg/kg/injection, schedule: Q04DX002 (ip), vehicle: saline with Tween-80
[11] = dose: 200.0 mg/kg/injection, schedule: Q04DX002 (ip), vehicle: saline with Tween-80
[12] = dose: 400.0 mg/kg/injection, schedule: Q04DX002 (ip), vehicle: saline with Tween-80
[13] = dose: 50.0 mg/kg/injection, schedule: Q01DX005 (ip), vehicle: Klucel (hydroxypropylcellulose) (HPC)
[14] = dose: 100.0 mg/kg/injection, schedule: Q01DX005 (ip), vehicle: Klucel (hydroxypropylcellulose) (HPC)

SMILES: NC(Cc1ccc(O)cc1)C(=O)OC1CCCCC1 (centres undefined)
- T/C (dose: 25.0 mg/kg/injection, schedule: Q04DX003 (ip), vehicle: saline with Tween-80): 107 % of control
- T/C (dose: 50.0 mg/kg/injection, schedule: Q04DX003 (ip), vehicle: saline with Tween-80): 110 % of control
- T/C (dose: 100.0 mg/kg/injection, schedule: Q04DX003 (ip), vehicle: saline with Tween-80): 100 % of control
- T/C (dose: 200.0 mg/kg/injection, schedule: Q04DX003 (ip), vehicle: saline with Tween-80): 96 % of control
- T/C (dose: 400.0 mg/kg/injection, schedule: Q04DX003 (ip), vehicle: saline with Tween-80): 95 % of control

SMILES: CCN(CC)CCN1c2ccccc2Sc2ccc3ccccc3c21
- T/C (dose: 50.0 mg/kg/injection, schedule: Q01DX005 (ip), vehicle: saline + Tween-80 + alcohol): 107 % of control
- T/C (dose: 100.0 mg/kg/injection, schedule: Q01DX005 (ip), vehicle: saline + Tween-80 + alcohol): 105 % of control
- T/C (dose: 200.0 mg/kg/injection, schedule: Q01DX005 (ip), vehicle: saline + Tween-80 + alcohol): 102 % of control

SMILES: O=c1c(Cl)c(Cl)cnn1-c1ccccc1
- T/C (dose: 25.0 mg/kg/injection, schedule: Q01DX001 (ip), vehicle: saline with Tween-80): 100 % of control
- T/C (dose: 50.0 mg/kg/injection, schedule: Q01DX001 (ip), vehicle: saline with Tween-80): 118 % of control
- T/C (dose: 100.0 mg/kg/injection, schedule: Q01DX001 (ip), vehicle: saline with Tween-80): 111 % of control
- T/C (dose: 200.0 mg/kg/injection, schedule: Q01DX001 (ip), vehicle: saline with Tween-80): 111 % of control

SMILES: O=C1CNC(=O)C(Cc2c[nH]c3ccccc23)N1 (centres undefined)
- T/C [1]: 100 % of control
- T/C [2]: 96 % of control
- T/C [3]: 100 % of control

SMILES: C/C(=C/c1nc2ccccc2[nH]1)c1ccccc1
- T/C (dose: 25.0 mg/kg/injection, schedule: Q01DX005 (ip), vehicle: saline with Tween-80): 100 % of control
- T/C [4]: 100 % of control and 107 % of control
- T/C [5]: 121 % of control and 96 % of control
- T/C [6]: 95 % of control and 96 % of control

SMILES: CCCCCCCCSC(SCCCCCCCC)C(O)C(O)C(O)CO (centres undefined)
- T/C [4]: 93 % of control
- T/C [5]: 109 % of control

SMILES: CCCCCCCCn1nnnc1C(F)(F)F
- T/C [4]: 100 % of control
- T/C [5]: 102 % of control
- T/C [6]: 102 % of control

SMILES: N#CC1=C(C#N)CC(c2ccccc2)CC1 (centres undefined)
- T/C [1]: 104 % of control
- T/C [2]: 100 % of control
- T/C [3]: 96 % of control

SMILES: C=C1N=NN(c2ccc(C)cc2)C1N1CCOCC1 (centres undefined)
- T/C [7]: 93 % of control
- T/C [8]: 99 % of control
- T/C [9]: 90 % of control

SMILES: O=C(Nc1cc(S(=O)(=O)O)cc2cc(S(=O)(=O)O)c(N=Nc3cc(Nc4nc(Cl)nc(Nc5ccc(S(=O)(=O)O)cc5)n4)ccc3S(=O)(=O)O)c(O)c12)c1ccccc1
- T/C (dose: 60.0 mg/kg/injection, schedule: Q01DX005 (ip), vehicle: saline): 106 % of control
- T/C (dose: 120.0 mg/kg/injection, schedule: Q01DX005 (ip), vehicle: saline): 102 % of control

SMILES: CS/C(N)=N/NC(=O)CCC(=O)Nc1cc(C)ccc1C
- T/C [10]: 102 % of control
- T/C [11]: 101 % of control
- T/C [12]: 90 % of control

SMILES: NP1(N)=NP(N)(N)=NP(N)(N)=NP(N)(N)=N1
- T/C [13]: 96 % of control
- T/C [14]: 96 % of control
- T/C (dose: 200.0 mg/kg/injection, schedule: Q01DX005 (ip), vehicle: Klucel (hydroxypropylcellulose) (HPC)): 99 % of control

SMILES: CSc1ccc2ccccc2c1/C=[N+](/[O-])c1ccccc1
- T/C [7]: 95 % of control
- T/C [8]: 97 % of control
- T/C [9]: 96 % of control

SMILES: CCOC(=O)N(C)C(=O)CN(C=O)c1ncc([N+](=O)[O-])s1
- T/C (dose: 100.0 mg/kg/injection, schedule: Q01DX001 (ip), vehicle: saline): 101 % of control
- T/C (dose: 200.0 mg/kg/injection, schedule: Q01DX001 (ip), vehicle: saline): 101 % of control
- T/C (dose: 400.0 mg/kg/injection, schedule: Q01DX001 (ip), vehicle: saline): 100 % of control

SMILES: CC[C@H]1CN2CCc3cc(OC)c(OC)cc3[C@@H]2C[C@@H]1C[C@@H]1c2cc(OC)c(OC)cc2CCN1N=O
- T/C (dose: 6.25 mg/kg/injection, schedule: Q01DX009 (ip), vehicle: saline with Tween-80): 96 % of control
- T/C (dose: 12.5 mg/kg/injection, schedule: Q01DX009 (ip), vehicle: saline with Tween-80): 99 % of control
- T/C (dose: 25.0 mg/kg/injection, schedule: Q01DX009 (ip), vehicle: saline with Tween-80): 107 % of control
- T/C (dose: 50.0 mg/kg/injection, schedule: Q01DX009 (ip), vehicle: saline with Tween-80): 100 % of control

SMILES: Cc1cc2c(=O)[nH]c(N)nc2nc1C
- T/C [4]: 100 % of control
- T/C [5]: 96 % of control
- T/C [6]: 102 % of control

SMILES: CC1C2(c3ccccc3)C(C(=O)c3ccccc3)NC(c3ccccc3)C12c1ccccc1 (centres undefined)
- T/C [4]: 87 % of control
- T/C [5]: 87 % of control

SMILES: CCCCCCCCCCCCCCCc1cc(O)c(CC=C(C)C)c(=O)o1 (tested in a mixture with another compound)
- T/C (dose: 82.5 mg/kg/injection, schedule: Q01DX005 (ip), vehicle: Klucel (hydroxypropylcellulose) (HPC)): 98 % of control
- T/C (dose: 165.0 mg/kg/injection, schedule: Q01DX005 (ip), vehicle: Klucel (hydroxypropylcellulose) (HPC)): 97 % of control
- T/C (dose: 330.0 mg/kg/injection, schedule: Q01DX005 (ip), vehicle: Klucel (hydroxypropylcellulose) (HPC)): 105 % of control

SMILES: O=C(O)c1cn2ccccc2c1[N+](=O)[O-]
- T/C [10]: 94 % of control
- T/C [11]: 92 % of control
- T/C [12]: 96 % of control

SMILES: COc1cccc2c1C(=O)c1c(O)c3c(c(O)c1C2=O)C[C@@](O)(C(=O)COC(=O)c1ccccc1)C[C@@H]3OC1CC(N)C(O)C(C)O1 (some centres undefined)
- T/C (dose: 0.5 mg/kg/injection, schedule: Q01DX009 (ip), vehicle: saline sonified): 168 % of control
- T/C (dose: 1.0 mg/kg/injection, schedule: Q01DX009 (ip), vehicle: saline sonified): 186 % of control
- T/C (dose: 2.0 mg/kg/injection, schedule: Q01DX009 (ip), vehicle: saline sonified): 190 % of control

SMILES: CC1(C)C2CCC1(C)C(OC(=O)/C=C/c1ccc(O)c(O)c1)C2 (centres undefined)
- T/C (dose: 12.5 mg/kg/injection, schedule: Q01DX009 (ip), vehicle: Klucel (hydroxypropylcellulose) (HPC)): 100 % of control
- T/C (dose: 25.0 mg/kg/injection, schedule: Q01DX009 (ip), vehicle: Klucel (hydroxypropylcellulose) (HPC)): 98 % of control
- T/C (dose: 50.0 mg/kg/injection, schedule: Q01DX009 (ip), vehicle: Klucel (hydroxypropylcellulose) (HPC)): 87 % of control
- T/C (dose: 100.0 mg/kg/injection, schedule: Q01DX009 (ip), vehicle: Klucel (hydroxypropylcellulose) (HPC)): 97 % of control

SMILES: CN(C)CCCNC(=S)C(=S)NCCCN(C)C
- T/C [13]: 97 % of control
- T/C [14]: 105 % of control

SMILES: CC1CCC2(CC1)CC(=O)N(N1CCOCC1)C(=O)C2
- T/C (dose: 60.0 mg/kg/injection, schedule: Q01DX005 (ip), vehicle: suspension in saline): 99 % of control
- T/C (dose: 120.0 mg/kg/injection, schedule: Q01DX005 (ip), vehicle: suspension in saline): 99 % of control
- T/C (dose: 240.0 mg/kg/injection, schedule: Q01DX005 (ip), vehicle: suspension in saline): 102 % of control

SMILES: COc1cc2cc3c(c(O)c2c(O)c1/C=C/C(C)C)C(=O)CC(C)(OC(C)=O)C3 (centres undefined)
- T/C (dose: 2.5 mg/kg/injection, schedule: Q01DX005 (ip), vehicle: Klucel (hydroxypropylcellulose) (HPC)): 103 % of control
- T/C (dose: 5.0 mg/kg/injection, schedule: Q01DX005 (ip), vehicle: Klucel (hydroxypropylcellulose) (HPC)): 117 % of control

SMILES: CN(C)CCCN1CCC2(CCCCC2)CC1
- T/C (dose: 50.0 mg/kg/injection, schedule: Q01DX005 (ip), vehicle: saline): 94 % of control
- T/C (dose: 100.0 mg/kg/injection, schedule: Q01DX005 (ip), vehicle: saline): 98 % of control
- T/C (dose: 200.0 mg/kg/injection, schedule: Q01DX005 (ip), vehicle: saline): 109 % of control

SMILES: CC(=O)c1c(O)ccc2nc3ccccc3nc12
- T/C (dose: 50.0 mg/kg/injection, schedule: Q01DX009 (ip), vehicle: suspension in saline): 105 % of control
- T/C (dose: 100.0 mg/kg/injection, schedule: Q01DX009 (ip), vehicle: suspension in saline): 111 % of control
- T/C (dose: 200.0 mg/kg/injection, schedule: Q01DX009 (ip), vehicle: suspension in saline): 93 % of control

SMILES: CC1(O)C=CP(C)(=O)C1 (centres undefined)
- T/C (dose: 12.5 mg/kg/injection, schedule: Q01DX009 (ip), vehicle: saline): 108 % of control
- T/C (dose: 25.0 mg/kg/injection, schedule: Q01DX009 (ip), vehicle: saline): 110 % of control
- T/C [1]: 111 % of control
- T/C [2]: 100 % of control
- T/C [3]: 86 % of control

Reference: PubChem BioAssay AID330 (DTP/NCI, 2004)
